Laboratory results: the NIST ThermoML archive (doi:10.1021/je700260f)

Conditions: 313.15 K, Liquid, Vibrating tube method

FC(C(F)(F)F)C(F)(F)F [1,1,1,2,3,3,3-heptafluoropropane]
Conditions | mass density [kg/m3]
6459 kPa | 1373.4
6490 kPa | 1373.6
6518 kPa | 1373.8
6545 kPa | 1374
6574 kPa | 1374.3
6602 kPa | 1374.5
6638 kPa | 1374.7
6666 kPa | 1374.8
6694 kPa | 1375.2
6718 kPa | 1375.4
6751 kPa | 1375.5
6776 kPa | 1375.7
6806 kPa | 1376
6835 kPa | 1376
6863 kPa | 1376.4
6883 kPa | 1376.7
6908 kPa | 1376.8
6938 kPa | 1376.9
6976 kPa | 1377.1
7006 kPa | 1377.4
7045 kPa | 1377.7
7079 kPa | 1377.9
7109 kPa | 1378.2
7139 kPa | 1378.3
7169 kPa | 1378.7
7198 kPa | 1378.8
7228 kPa | 1379
7266 kPa | 1379.4
7292 kPa | 1379.5
7326 kPa | 1379.7
7348 kPa | 1379.9
7382 kPa | 1380.1
7408 kPa | 1380.3
7438 kPa | 1380.5
7465 kPa | 1380.7
7501 kPa | 1380.9
7527 kPa | 1381.2
7556 kPa | 1381.4
7582 kPa | 1381.6
7612 kPa | 1381.8
7638 kPa | 1382.1
7677 kPa | 1382.3
7703 kPa | 1382.3
7742 kPa | 1382.8
7768 kPa | 1382.8
7798 kPa | 1383
7824 kPa | 1383.2
7851 kPa | 1383.5
7874 kPa | 1383.6
7910 kPa | 1383.8
7931 kPa | 1383.9
7958 kPa | 1384.2
7993 kPa | 1384.3
8020 kPa | 1384.6
8059 kPa | 1384.9
8094 kPa | 1385
8129 kPa | 1385.4
8156 kPa | 1385.5
8196 kPa | 1385.9
8223 kPa | 1386
8263 kPa | 1386.4
8295 kPa | 1386.4
8331 kPa | 1386.7
8367 kPa | 1387
8399 kPa | 1387.1
8430 kPa | 1387.3
8461 kPa | 1387.6
8497 kPa | 1387.9
8523 kPa | 1388.2
8564 kPa | 1388.3
8622 kPa | 1388.8
8654 kPa | 1388.8
8689 kPa | 1389.1
8720 kPa | 1389.4
8766 kPa | 1389.7
8798 kPa | 1390
8834 kPa | 1390.1
8861 kPa | 1390.3
8887 kPa | 1390.6
8915 kPa | 1390.6
8943 kPa | 1390.9
8979 kPa | 1391.1
9019 kPa | 1391.5
9044 kPa | 1391.5
9072 kPa | 1391.7
9097 kPa | 1391.9
9130 kPa | 1392.1
9160 kPa | 1392.2
9179 kPa | 1392.3
9214 kPa | 1392.6
9236 kPa | 1392.7
9263 kPa | 1393
9286 kPa | 1393.1
9320 kPa | 1393.4
9340 kPa | 1393.4
9367 kPa | 1393.6
9393 kPa | 1393.8
9419 kPa | 1394
9443 kPa | 1394
9465 kPa | 1394.3
9495 kPa | 1394.3
9518 kPa | 1394.6
9544 kPa | 1394.8
9564 kPa | 1394.9
9591 kPa | 1395
9619 kPa | 1395.3
9823 kPa | 1396.6
9856 kPa | 1396.8
9892 kPa | 1397
9921 kPa | 1397.3
9953 kPa | 1397.4
9987 kPa | 1397.4
10010 kPa | 1397.7
10062 kPa | 1398.1
10094 kPa | 1398.2
10123 kPa | 1398.4
10151 kPa | 1398.5
10183 kPa | 1398.9
10211 kPa | 1399.1
10247 kPa | 1399.1
10272 kPa | 1399.3
10301 kPa | 1399.5
10332 kPa | 1399.8
10361 kPa | 1400
10389 kPa | 1400
10421 kPa | 1400.3
10450 kPa | 1400.4
10482 kPa | 1400.8
10519 kPa | 1401
10547 kPa | 1401.1
10580 kPa | 1401.3
10609 kPa | 1401.5
10646 kPa | 1401.7
10680 kPa | 1401.9
10709 kPa | 1402.1
10743 kPa | 1402.3
10780 kPa | 1402.5
10813 kPa | 1402.7
10838 kPa | 1402.9
10871 kPa | 1403.1
10899 kPa | 1403.2
10928 kPa | 1403.5
10956 kPa | 1403.5
10981 kPa | 1403.7
11015 kPa | 1404.1
11048 kPa | 1404.2
11069 kPa | 1404.4
11102 kPa | 1404.4
11127 kPa | 1404.6
11164 kPa | 1404.9
11193 kPa | 1405
11222 kPa | 1405.3
11252 kPa | 1405.4
11278 kPa | 1405.5
11317 kPa | 1405.7
11360 kPa | 1405.9
11399 kPa | 1406.3
11424 kPa | 1406.4
11461 kPa | 1406.5
11486 kPa | 1406.8
11518 kPa | 1406.9
11544 kPa | 1407.2
11578 kPa | 1407.4
11628 kPa | 1407.6
11692 kPa | 1408
11726 kPa | 1408.2
11751 kPa | 1408.3
11788 kPa | 1408.5
11818 kPa | 1408.8
11860 kPa | 1408.9
11889 kPa | 1409.2
11927 kPa | 1409.3
11969 kPa | 1409.5
11998 kPa | 1409.7
12023 kPa | 1409.9
12048 kPa | 1410.1
12069 kPa | 1410.1
12099 kPa | 1410.3
12128 kPa | 1410.6
12165 kPa | 1410.9
12206 kPa | 1410.9
12231 kPa | 1411.1
12265 kPa | 1411.4
12294 kPa | 1411.4
12323 kPa | 1411.6
12344 kPa | 1411.8
12373 kPa | 1411.9
12407 kPa | 1412.1
12448 kPa | 1412.4
12477 kPa | 1412.4
12510 kPa | 1412.8
12532 kPa | 1412.9
12565 kPa | 1413.1
12616 kPa | 1413.4
12650 kPa | 1413.4
12689 kPa | 1413.8
12723 kPa | 1413.9
12749 kPa | 1414.1
12786 kPa | 1414.2
12813 kPa | 1414.5
12852 kPa | 1414.7
12888 kPa | 1414.9
12924 kPa | 1415.1
12959 kPa | 1415.3
12986 kPa | 1415.4
